In brackets after ≈: the same amount, converted by molar mass.
Columns and labels:
[1] = test system: Plasmodium falciparum; experiment: Antiplasmodial activity against Plasmodium falciparum 3D7 infected in RBC assessed as reduction in parasitemia incubated for 72 hrs by SYBR green dye-based assay; type: functional, organism-based
[2] = Inhibition of N-terminal His6-tagged Plasmodium falciparum DHODH expressed in Escherichia coli BL21 using L-DHO as substrate and CoQ as co-substrate by DCIP dye based spectrophotometric assay
[3] = Lipophilicity, logD of the compound at pH 7.4; type: physicochemical; settings: buffer
[4] = Intrinsic clearance in mouse liver microsomes at 1 uM by LC-MS analysis; type: ADME, Microsome
[5] = target: Dihydroorotate dehydrogenase (quinone), mitochondrial (Homo sapiens, UniProt Q02127); experiment: Inhibition of N-terminal His6-tagged human DHODH expressed in Escherichia coli BL21 using L-DHO as substrate and CoQ as co-substrate by DCIP dye based spectrophotometric assay
[6] = Intrinsic clearance in human pooled liver microsomes assessed per mg protein at 1 uM by LC-MS analysis; type: ADME, Microsome; settings: microsomes, 1 µM
[7] = Intrinsic clearance in rat liver microsomes assessed per mg protein at 1 uM by LC-MS analysis; type: ADME, Microsome; settings: microsomes, 1 µM
[8] = Kinetic solubility of compound in phosphate buffer at pH 6.5 measured after 30 mins by HPLC-UV based analysis; type: physicochemical; settings: for solubility kinetic at 0.5 h: phosphate buffer, pH 6.5, read-out: Kinetic_solubility
[9] = Inhibition of N-terminal His6-tagged Plasmodium vivax DHODH expressed in Escherichia coli BL21 using L-DHO as substrate and CoQ as co-substrate by DCIP dye based spectrophotometric assay
[10] = test system: Plasmodium falciparum; experiment: Antiplasmodial activity against Plasmodium falciparum 3D7 infected in NSG mouse assessed as blood AUC level require to show 90% reduction in parasitemia administered orally on day 3 post-infection QD for 4 days and measured after 24 hrs post dose by LC-MS/MS analysis; type: functional, organism-based; settings: time 4.0 day
[11] = test system: Plasmodium falciparum; experiment: Antiplasmodial activity against Plasmodium falciparum 3D7 infected in po dosed NSG mouse assessed as reduction in parasitemia administered twice daily for 4 consecutive days starting from day 3 post-infection and measured 24 hrs post last dose by flow cytometric analysis; type: functional; settings: 3D7, po, 96 h, time 4 day
[12] = test system: Plasmodium falciparum; experiment: Antiplasmodial activity against Plasmodium falciparum 3D7 infected in po dosed NSG mouse assessed as blood AUC level require to show 90% reduction in parasitemia administered once daily for 4 consecutive days starting from day 3 post-infection and measured 24 hrs post last dose by flow cytometric analysis; type: functional, organism-based; settings: time 4.0 day
[13] = Plasmodium falciparum, 3D7, Erythrocyte, 72 h

Dihydroorotate dehydrogenase (quinone), mitochondrial, sequence (Q02127 whole entry): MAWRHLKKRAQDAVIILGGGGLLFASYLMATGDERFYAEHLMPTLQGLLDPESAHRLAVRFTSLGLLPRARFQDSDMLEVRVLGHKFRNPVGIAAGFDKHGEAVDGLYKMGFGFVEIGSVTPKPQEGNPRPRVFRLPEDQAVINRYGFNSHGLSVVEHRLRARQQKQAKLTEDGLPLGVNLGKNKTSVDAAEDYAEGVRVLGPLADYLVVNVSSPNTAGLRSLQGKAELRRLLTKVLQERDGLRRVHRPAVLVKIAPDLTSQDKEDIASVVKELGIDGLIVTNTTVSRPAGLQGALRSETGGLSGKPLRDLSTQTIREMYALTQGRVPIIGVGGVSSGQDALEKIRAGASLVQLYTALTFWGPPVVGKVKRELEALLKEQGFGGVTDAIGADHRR

Structure (SMILES)	EC50 ([1]; rbc) [nM]	IC50 [2] [nM]	logD [3]	intrinsic clearance [4] [µL/min]	IC50 [5] [nM]	microsomal intrinsic clearance [6] [µL/min]	Intrinsic clearance in rat liver microsomes (uL/min/mg protein) [7] [µL/min]	solubility kinetic at 0.5 h [8] [µg/mL]	IC50 [9] [nM]	EC50 [1, 13] [nM]	other results
Cc1cc(NC2CCc3cc(F)c(F)cc3C2)n2nc(C(C)(F)F)nc2n1 (stereo in doubt; 18)	> 2500	2300	–	–	–	–	–	–	–	–	–
Cc1cc(NC2CCc3cc(F)ccc3C2)n2nc(C(C)(F)F)nc2n1 (centres undefined)	–	–	3.5	122	> 100000	14	39	6.3 (≈ 17.4 µM)	–	–	–
Cc1cc(NC2CCc3cc(Br)ccc3C2)n2nc(C(C)(F)F)nc2n1 (stereo in doubt; 12)	140	790	–	40	–	< 7	–	–	2100	–	Kinetic_solubility ([8]; buffer, pH 6.5, 0.5 h): 3.1 µg/mL
Cc1cc(NC2CCc3ccc(Cl)cc3C2)n2nc(C(F)(F)F)nc2n1 (stereo in doubt; 24)	33	15	4.1	24	–	9	–	1.6 (≈ 4.19 µM)	–	–	–
Cc1cc(NC2Cc3ccc(Cl)cc3C2)n2nc(C(C)(F)F)nc2n1 (centres undefined)	–	85	3.5	43	–	10	54	6.3 (≈ 17.3 µM)	–	120	–
COc1ccc2c(c1)CC(Nc1cc(C)nc3nc(C(C)(F)F)nn13)CC2 (stereo in doubt; 16)	25	21	3.3	25	–	18	19	12.5 (≈ 33.5 µM)	130	–	–
Cc1cc(NC2Cc3ccc(Br)cc3C2)n2nc(C(C)(F)F)nc2n1 (centres undefined)	–	110	–	–	–	–	–	–	–	590	–
Cc1cc(NC2CCc3cc(Cl)ccc3C2)n2nc(C(C)(F)F)nc2n1 (stereo in doubt; 8)	420	1340	–	–	–	–	–	–	–	–	–
Cc1cc(NC2Cc3cc(F)c(F)cc3C2)n2nc(C(F)(F)F)nc2n1	–	120	–	–	–	–	–	–	–	150	–
Cc1cc(NC2Cc3cc(Cl)c(Cl)cc3C2)n2nc(C(C)(F)F)nc2n1	–	140	–	–	–	–	–	–	–	580	–
Cc1cc(N[C@@H]2CCc3ccc(Cl)cc3C2)n2nc(C(C)(F)F)nc2n1	–	790	–	–	> 100000	–	–	–	–	2800	–
Cc1cc(NC2CCc3cc(Cl)ccc3C2)n2nc(C(C)(F)F)nc2n1 (stereo in doubt)	–	–	–	–	–	–	–	–	–	–	AUCED90 [10]: > 23 µM.hr/day
Cc1cc(NC2CCc3ccc(Cl)cc3C2)n2nc(C(F)(F)F)nc2n1 (stereo in doubt; 25)	1500	1100	–	–	–	–	–	–	–	–	–
Cc1cc(NC2Cc3c(C)ccc(C)c3C2)n2nc(C(C)(F)F)nc2n1	–	14	3.8	1000	> 100000	168	178	6.3 (≈ 17.6 µM)	24	0.39	–
Cc1cc(NC2CCc3ccccc3C2)n2nc(C(F)(F)F)nc2n1 (centres undefined)	–	170	–	–	> 100000	–	–	–	–	21	–
Cc1cc(NC2CCc3ccccc3C2)n2nc(C(C)(F)F)nc2n1 (centres undefined)	–	21	–	–	–	–	–	–	35	2.8	–
Cc1cc(NC2Cc3c(F)ccc(F)c3C2)n2nc(C(C)(F)F)nc2n1	–	65	3.2	1500	> 100000	33	1013	6.3 (≈ 17.2 µM)	150	46	–
Cc1cc(NC2Cc3cccc(C(F)(F)F)c3C2)n2nc(C(C)(F)F)nc2n1 (centres undefined)	–	66	3.7	119	> 100000	30	61	6.3 (≈ 15.9 µM)	280	4.3	–
COc1ccc2c(c1)CCC(Nc1cc(C)nc3nc(C(C)(F)F)nn13)C2 (centres undefined)	–	140	–	–	> 100000	–	–	–	220	17	–
Cc1cc(NC2CCc3cc(F)ccc3C2)n2nc(C(F)(F)F)nc2n1 (centres undefined)	–	77	–	–	–	–	–	–	280	66	–
Cc1cc(NC2CCc3cc(F)c(F)cc3C2)n2nc(C(C)(F)F)nc2n1 (stereo in doubt; 19)	22	60	–	59	–	11	24	–	71	–	–
CCN(CC)CCCC(C)Nc1ccnc2cc(Cl)ccc12 (centres undefined) [CHLOROQUINE]	–	–	–	–	–	–	–	–	–	–	ED90 [11]: 4.3 mg/kg; AUCED90 [12]: 3.1 µM.hr/day
Cc1cc(NC2Cc3cccc(F)c3C2)n2nc(C(C)(F)F)nc2n1 (centres undefined)	–	52	3.3	76	> 100000	11	72	12.5 (≈ 36 µM)	300	64	–
Cc1cc(NC2CCc3ccc(Br)cc3C2)n2nc(C(C)(F)F)nc2n1 (stereo in doubt; 14)	1400	640	–	–	–	–	–	–	–	–	–
Cc1cc(NC2Cc3ccccc3C2)n2nc(C(C)(F)F)nc2n1	–	48	3.1	1004	> 100000	24	245	25 (≈ 75.9 µM)	–	36	–
Cc1cc(NC2CCc3cc(C(F)(F)F)c(F)cc3C2)n2nc(C(C)(F)F)nc2n1 (centres undefined)	–	87	4.1	< 7	> 100000	< 7	< 7	1.6 (≈ 3.73 µM)	820	3300	–
Cc1cc(NC2Cc3ccc(S(C)(=O)=O)cc3C2)n2nc(C(C)(F)F)nc2n1 (centres undefined)	–	4000	–	–	–	–	–	–	–	6500	–
Cc1cc(NC2CCc3cc(F)c(C(F)(F)F)cc3C2)n2nc(C(C)(F)F)nc2n1 (centres undefined)	–	89	4	17	> 100000	< 7	13	3.1 (≈ 7.22 µM)	390	97	–
Cc1cc(NC2Cc3ccc(S(=O)(=O)N(C)C)cc3C2)n2nc(C(C)(F)F)nc2n1 (centres undefined)	–	8000	–	–	–	–	–	–	–	–	–
COc1ccc2c(c1)CC(Nc1cc(C)nc3nc(C(C)(F)F)nn13)CC2 (stereo in doubt; 17)	640	1000	–	–	–	–	–	–	–	–	–

From ChEMBL document CHEMBL4706474, “Tetrahydro-2-naphthyl and 2-Indanyl Triazolopyrimidines Targeting Plasmodium falciparum Dihydroorotate Dehydrogenase Display Potent and Selective Antimalarial Activity” (J Med Chem, 2016)
